In patent US6355663B1, “Substituted isoxazolylthiophene compounds” (Taisho Pharmaceutical Co., Ltd., priority 1998, dated 2002):

Legend:
[1] = test system: osteoblasts derived from the parietal bone of rat fetus; test: Enhancing activity for the nodule induction in osteoblasts; assay type: cell-based; conditions: rat fetal parietal bone osteoblasts
Procedure: The compounds of the invention were determined for an enhancing activity for the nodule induction in osteoblasts derived from the parietal bone of rat fetus. Results were 342% at 1.0 μg/ml for Example 1, 501% at 2.5 μg/ml for Example 3, 576% at 2.5 μg/ml for Example 7 and 550% at 2.5 μg/ml for Example 9, respectively.

[2] = test system: osteoblasts derived from the parietal bone of rat fetus; test: Enhancing activity for the induction of alkaline phosphatase production in osteoblasts; assay type: cell-based; conditions: test compound 2.5 μg/ml; compared with activity without the test compound; rat fetal parietal bone osteoblasts
Procedure: The compounds of the present invention were determined for an enhancing activity for the induction of alkaline phosphatase production in osteoblasts derived from the parietal bone of rat fetus. Enhancing activities for the induction of alkaline phosphatase production at a concentration of the test compound of 2.5 μg/ml were 195% for Example 1, 155% for Example 3, 187% for Example 7 and 134% for Example 9, respectively, when compared with those activities without the test compounds.

| melting point [°C] | SMILES | Enhancing activity for the nodule induction ([1]; at 1.0 μg/ml) [%] | Enhancing activity for the induction of alkaline phosphatase production [2] [%] | Enhancing activity for the nodule induction ([1]; at 2.5 μg/ml) [%] |
| --- | --- | --- | --- | --- |
|  | CSc1sc(C(N)=O)c(C)c1-c1oncc1C [Example 1, 3,4′-Dimethyl-4-(isoxazol-5-yl)-5-(methylthio)thiophene-2-carboxamide] | 342 | 195 |  |
| 93.5 to 94.5 | CCc1c(C(N)=O)sc(SC)c1-c1oncc1C [Example 3, 3-Ethyl-4-(4-methylisoxazol-5-yl)-5-(methylthio)thiophene-2-carboxamide] |  | 155 | 501 |
|  | CSc1sc(C(N)=O)c(C)c1-c1oncc1C(C)C [Example 9] |  | 134 | 550 |
|  | CCc1cnoc1-c1c(SC)sc(C(N)=O)c1C [Example 7, 4-(4-Etkylisoxazol-5-yl)-3-methyl-5-(methylthio)-thiophene-2-carboxamide] |  | 187 | 576 |
